Measurements taken from patent US20140243415A1, “COMPOUNDS INHIBITING GALECTIN-1 EXPRESSION, CANCER CELL PROLIFERATION, INVASION, AND TUMORIGENESIS” (ONCOETHIX SA, priority 2011, published 2014).

Tests used:
[1] = test system: DLD-1TR21 colon cancer cells; experiment: Antiproliferative effects, SNAIL-inducible model; assay type: cell-based, human; conditions: SNAIL-inducible DLD-1TR21
Source text: FIG. 2. Epithelial-to-mesenchymal differentiation and OTX-008 sensitivity. A—Correlations between galectin-1 (LGALS1) and vimentin, E-cadherin (CDH1) and N-cadherin (CDH2) relative mRNA expression. B—Correlations between OTX-008 IC50s and vimentin, E-cadherin (CDH1) and N-cadherin (CDH2) relative mRNA expression. C—Antiproliferative effects of OTX-008 in epithelial COLO205-S and mesenchymal COLO205-R colon cancer cells. D—Antiproliferative effects of OTX-008 in SNAIL-inducible colon cancer cell lines. E—Antiproliferative effects of OTX-008 in shWISP breast cancer cell lines.
Cell survival was determined using the MTT assay (3-[4,5-dimethylthiazol-2-yl]-2,5-diphenyltetrazolium bromide; Sigma, Saint-Quentin Fallavier, France). The conversion of yellow water-soluble tetrazolium MTT into purple insoluble formazan is catalyzed by mitochondrial dehydrogenases and used to estimate the number of viable cells. In brief, cells were seeded in 96-well tissue culture plates at a density of 2×10^3 cells/well. […] After incubation, the supernatant was discarded, insoluble formazan precipitates were dissolved in 0.1 ml of DMSO and the absorbance was measured at 560 nm by use of a microplate reader (Thermo, France). […] IC50's were determined as the halves of maximal inhibitory drug concentration for each cell line. […]

γH2AX = γH2AX expression; assay type: cell-based, human
SQ20B xenografts = experiment: SQ20B xenograft model; assay type: in vivo
Description: FIG. 6. […] A—The antitumor effects of OTX-008 on A2780-1A9 xenograft were compared to that of active doses of cisplatin and paclitaxel—solid line represents days of treatment. B—Immunohistochemistry of galectin-1, Ki67 (MIB-1) and CD31 on A2780-1A9 xenograft. C—Tumor growth and secondary tumor formation of SQ20B xenografts untreated and treated with 10 mg/kg/day OTX-008 and SQ-shGAL1 xenografts. Tumor volume was determined as 3.14(width2)/length—solid line represents days of treatment. D—Immunohistochemistry of galectin-1, MIB1, VEGFR2 and CD31 on SQ20B xenografts
The immunohistochemical procedure was performed on OCT-embedded subcutaneous tumor stained with H&E, MIB1 ( 1/400, Dako, Glostrup, Denmark), CD31 ( 1/200, Dako), VEGFR2 ( 1/125, Cell Signaling, Saint Quentin Yvelines, France) or galectin-1 (1:20, Abcam, Cambridge, Mass., USA) using an automated immunohistochemical stainer according to the manufacturer's guidelines (streptavidin-peroxidase protocol; Benchmark, Ventana, Tuscon, Ariz., USA). The images were captured and analyzed with a Zeiss observer Z1 microscope. Images quantification was performed using Histolab Software (Microvision, France) subtracting the background. Magnification ×20 and ×40.
5.10^6 SQ20B or SQ20B-shGal1 cancer cells were injected s.c. into the right lateral flank of female nu/nu athymic mice. On day 5, mice were randomized; one group of SQ20B-mice was treated every other day with 10 mg/kg OTX-008 i.p. Tumor size was measured twice weekly with caliper and tumor volume was calculated as 3.14(width^2)/length. At the end of the study, mice were sacrificed, tumors were weighed and stored in OCT for molecular biology and immunohistochemical analysis. Secondary tumors were analyzed on liver, lung, intestine and skin in all mice. Mouse experiments complied with guidelines for Animal Housing and Experiment Board of the French authorities.

[2] = 10 mg/kg OTX-008 i.p. every other day

## CN(C)CCNC(=O)COc1c2cccc1Cc1cccc(c1OCC(=O)NCCN(C)C)Cc1cccc(c1OCC(=O)NCCN(C)C)Cc1cccc(c1OCC(=O)NCCN(C)C)C2 [OTX-008]
[1]
  effect of SNAIL induction on sensitivity: no impact on sensitivity
γH2AX
  γH2AX expression: no direct effects
SQ20B xenografts; 10 mg/kg OTX-008, control group >80%
  mice developing subcutaneous metastasis: 14%
SQ20B xenografts; [2]
  toxicity of the dose: non-toxic dose
  tumor growth: inhibited the growth of SQ20B xenografts
SQ20B xenografts; SQ20B xenograft
  cell proliferation (Ki67): significant decrease
  galectin-1 expression in tumors: significant decrease
SQ20B xenografts; at mouse autopsies
  secondary tumor development: significantly inhibited secondary tumor development
SQ20B xenografts; vs control
  number and diameter of micro-vessels: significantly reduced
